# Assays:
# [1] = test system: Table apple, type Boiken apple (C1); assay: Greenhouse test, cut apple branches C1 dipped in test solution, bud development stage; format: in vivo, Malus domestica; parameters: key to Bud development stage, apple branches C1: Stage 0: Buds unchanged; Stage 1: Buds slightly swollen, first green tips visible; Stage 2: strongly swollen, green buds; Stage 3: Buds before breaking open, leaf or flower root already visible; Stage 4: Flower buds fully developed, but still closed, white petals already visible. In the case of the grapevine, stage 4 was the unfolding of the first leaves; Stage 5: Flowers fully open or, in the case of grapevine, unfolding of the flower roots (“Gescheine”) on the fully leafed sprouts
# Method in brief: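 Cut Boiken apple branches kept in water jars in a greenhouse at about 22 °C under natural light and dipped in test solution. Solutions contained 0.15 mol test substance (0.075 mol for bis-cyanamides) plus 0.15 g BreakThru OE-446 per 500 g water. Bud development scored on a stage scale up to full flowering.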
# [2] = test system: table grapes type Red Globe; assay: Field test E2 table grapes Spain, bud burst; parameters: species or system Vitis vinifera; settings: in vivo
# Experimental: Three sections of a table grape plantation in southern Spain (type Red Globe) were treated with the following spray mixtures during the dormancy phase 45 days before natural bud burst (February 5):
# E2-0: 600 liters per hectare of water with an addition of 0.1% Break-Thru® OE-446 E2-1: 600 liters per hectare of the spray mixture from example D-1 E2-18: 600 liters per hectare of the spray mixture from example D-18
# As a result, the grapevine sprouts were evenly wetted.
# On April 3, bud burst was recorded numerically.
# Budding means number of buds that have developed at least one leaf after n days, based on the total number of buds on the sprouts at time n=0 days (day of application of spray mixture).
smiles,measurement,setting,value
"CC(=O)NC#N.[Na] [Example A-1, Sodium Acetylcyanamide]","Bud development stage, apple branches C1","[1]; T1 (14 d), 0.15 mol (A-14, A-15: 0.075 mol) per 500 g solution",0
same,"Bud development stage, apple branches C1",[1]; T2 (16 d),0
same,"Bud development stage, apple branches C1",[1]; T3 (21 d),2
same,"Bud development stage, apple branches C1",[1]; T4 (27 d),3
same,"Bud development stage, apple branches C1",[1]; T5 (36 d),5
same,"Bud development stage, apple branches C1",[1]; T6 (56 d),5
same,"Dormancy-breaking effect according to the definition, apple C1",[1]; stage 4 reached or exceeded after 36 days vs negative control,dormancy-breaking effect
same,Effectiveness compared with prior art treatment with cyanamide,[2],as effective as the prior art treatment with cyanamide

# — patent publication US20220400680A1, “USE OF ACYLCYANAMIDES OR SALTS THEREOF FOR REGULATING PLANT GROWTH” (Alzchem Trostberg GmbH, priority 2019, published 2022)
